Results from patent US4710505A, “Asymmetric heterocyclic ester derivatives of 1,4-dihydropyridine-3,5-dicarboxylic acids” (Societe de Recherches Industrielles (S.O.R.I.), priority 1985, dated 1987).
Like-named read-outs stand apart in the source and are kept apart here.

How the values were obtained:
rabbit aorta = assay: Relaxing effect on isolated rabbit aorta contracted (depolarized) by KCl; conditions: Oryctolagus cuniculus; rabbit aorta depolarized by 127 mM KCl; read-out: ED50 (dose causing a 50% relaxation of the precontracted arteries)
Protocol: I. RELAXING EFFECT ON ISOLATED RABBIT AORTA CONTRACTED BY KCl
The thoracic aortae of male rabbits are removed, cut into narrow strips and placed under tension in an oxygenated survival medium. The contractions of these arteries, the amplitude of which is measured using a myograph, are induced by a 127 mM solution of KCl [R. Towart et al., Arzneim.-Forsch./Drug Res. 32, 338-346 (1982)]. The compounds studied are dissolved in a mixture of anhydrous ethanol and double distilled water (1:1) v/v, the percentage of ethanol in the baths being less than or equal to 0.3% at the end of the experiment. When the contraction plateau is reached, the compound is added to the medium in increasing doses every 15 minutes.

[1] = system: spontaneously hypertensive rats; assay: Antihypertensive activity in spontaneously hypertensive rats, oral administration; assay type: in vivo; conditions: 30 mg/kg; for change in vivo at 30 mg/kg: Rattus norvegicus
Protocol: Spontaneously hypertensive rats aged between 16 and 20 weeks are used. The systolic pressure is measured by plethysmography and the heart rate is obtained from the pressure graph. The compounds studied are administered orally.

[2] = system: spontaneously hypertensive rats; assay: Antihypertensive activity in spontaneously hypertensive rats, intravenous administration; assay type: in vivo
Text: 2. Intravenous administration
Spontaneously hypertensive rats aged between 16 and 20 weeks are used. They are anesthetized with diethyl ether, a cannula is inserted into the caudal artery to measure the arterial pressure and a catheter is inserted into the right jugular vein to administer the compounds as described previously (L. S. Watson and L. T. Ludden, New Antihypertensive Drugs, pages 87-96, Spectrum Publication, Inc., 1976).
Each curve C relates to the control group receiving only the vehicle and each curve T relates to the treated group [n (number of animals per group)=4-7]. The said groups are compared either by analysis of variance, if the variances are homogenous (Bartlett's homocedasticity test), or by Kruskall-Wallis's non-parametric test (the statistically significant results being represented as follows:
FIGS. 1-6 relate to the variation in systolic pressure, expressed in mm Hg (1 mm Hg corresponds approximately to 1.333×10^2 Pa), as a function of time, expressed in minutes, and FIGS. 1a-6a relate to the variation in diastolic pressure, also expressed in mm Hg, as a function of time, expressed in minutes, for the treated groups (curves T) compared with the corresponding control groups (curves C), the doses of products administered being as follows:
FIGS. 2 and 2a: nicardipine at 30 μg/kg i.v.,
FIGS. 3 and 3a: Example 2 at 30 μg/kg i.v.,
FIGS. 4 and 4a: Example 7 at 100 μg/kg i.v.,
FIGS. 5 and 5a: Example 8 at 300 μg/kg i.v., and
FIGS. 6 and 6a: Example 11 at 30 and 100 μg/kg i.v. (curves T1 and T2).

anesthetized dogs = assay: Hemodynamic effects on anesthetized dogs, intraduodenal administration; assay type: in vivo, Mongrel dogs; conditions: 0.5 mg/kg
Protocol: III. HEMODYNAMIC EFFECTS ON ANESTHETIZED DOGS Mongrel dogs are anesthetized with pentobarbital sodium (25 mg/kg i.v.). Each animal is placed under artificial respiration and a catheter is introduced into the aorta to measure the arterial pressure. The outputs of the aorta (O. Aor.), right femoral artery (O. Fem.) and left coronary artery (descending part) (O. Cor.) are measured continuously by means of electromagnetic rings. The total peripheral resistances (T.P.R.) are also calculated. […]

in vivo = conditions: rat, intravenous, male Wistar rats weighing 300 g
Protocol: The LD50 was determined by intravenous administration to male Wistar rats weighing 300 g.

[3] = versus nicardipine and nifedipine

SMILES: COC(=O)C1=C(C)NC(C)=C(C(=O)OCC2COC3(CCCCC3)O2)C1c1cccc([N+](=O)[O-])c1 (centres unmarked) [Example 2, methyl (1,4-dioxaspiro[4,5]decan-2-yl)methyl 1,4-dihydro-2,6-dimethyl-4-(3-nitrophenyl)pyridine-3,5-dicarboxylate]
- EC50 (rabbit aorta): 50 nM
- duration of the effect, Systolic pressure [1]: > 24 h
- change in vivo at 30 mg/kg ([1]; read-out: % variation Heart rate): 24.5%
- change in vivo at 30 mg/kg ([1]; read-out: % variation Systolic pressure): -45.4 ± 6.3%
- drop in systolic and diastolic pressures (in words) ([2]; 30 μg/kg i.v., versus nicardipine 30 μg/kg and nifedipine 300 μg/kg i.v.): greater drop in systolic and diastolic pressures than nicardipine at the same dose and nifedipine at 10 times the dose
- duration of the antihypertensive effect (in words) ([2]; single i.v. dose, Ex. 2 30, Ex. 7 100, Ex. 8 300, Ex. 11 30 and 100 μg/kg, versus nicardipine and nifedipine): notably longer than that of nicardipine and nifedipine
- % variation D.P. (diastolic pressure) (anesthetized dogs): -41.2%
- % variation O. Aor. (output of the aorta) (anesthetized dogs): +40.2%
- % variation O. Cor. (output of left coronary artery) (anesthetized dogs): +89.5%
- % variation O. Fem. (output of right femoral artery) (anesthetized dogs): +180.5%
- duration of the effect, D.P. (diastolic pressure) (anesthetized dogs): 240 min
- duration of the effect, O. Aor. (output of the aorta) (anesthetized dogs): 300 min
- duration of the effect, O. Cor. (output of left coronary artery) (anesthetized dogs): 300 min
- duration of the effect, O. Fem. (output of right femoral artery) (anesthetized dogs): 300 min
- % variation T.P.R. (total peripheral resistances) (anesthetized dogs; calculated): -53.4%
- duration of the effect, T.P.R. (total peripheral resistances) (anesthetized dogs; calculated): 300 min
- cardiac, femoral and coronary outputs (in words) (anesthetized dogs; [3]): increased for a longer time and to a greater extent
- drop in total peripheral resistances (in words) (anesthetized dogs; [3]): greater drop in total peripheral resistances than nicardipine and nifedipine
- duration of drop in total peripheral resistances (in words) (anesthetized dogs; [3]): considerably longer
- LD50 (in vivo): 27.9 mg/kg
